This note sets out measurements from ChEMBL document CHEMBL4823254, “Tetrahydroquinoline-Capped Histone Deacetylase 6 Inhibitor SW-101 Ameliorates Pathological Phenotypes in a Charcot-Marie-Tooth Type 2A Mouse Model” (J Med Chem, 2021).

Data set [1] in a line: Genotoxicity in Salmonella typhimurium TA100 at 5 to 100 uM in presence of liver S9 fraction by Ames test. In kind it is toxicity. Particulars: salmonella enterica subsp. enterica serovar typhimurium, s9, 100 µM; dose 5-100 µM.
Data set [2] deals with T1, Protein deacetylase HDAC6 (Homo sapiens, UniProt Q9UBN7).
T1 sequence (Q9UBN7 whole entry): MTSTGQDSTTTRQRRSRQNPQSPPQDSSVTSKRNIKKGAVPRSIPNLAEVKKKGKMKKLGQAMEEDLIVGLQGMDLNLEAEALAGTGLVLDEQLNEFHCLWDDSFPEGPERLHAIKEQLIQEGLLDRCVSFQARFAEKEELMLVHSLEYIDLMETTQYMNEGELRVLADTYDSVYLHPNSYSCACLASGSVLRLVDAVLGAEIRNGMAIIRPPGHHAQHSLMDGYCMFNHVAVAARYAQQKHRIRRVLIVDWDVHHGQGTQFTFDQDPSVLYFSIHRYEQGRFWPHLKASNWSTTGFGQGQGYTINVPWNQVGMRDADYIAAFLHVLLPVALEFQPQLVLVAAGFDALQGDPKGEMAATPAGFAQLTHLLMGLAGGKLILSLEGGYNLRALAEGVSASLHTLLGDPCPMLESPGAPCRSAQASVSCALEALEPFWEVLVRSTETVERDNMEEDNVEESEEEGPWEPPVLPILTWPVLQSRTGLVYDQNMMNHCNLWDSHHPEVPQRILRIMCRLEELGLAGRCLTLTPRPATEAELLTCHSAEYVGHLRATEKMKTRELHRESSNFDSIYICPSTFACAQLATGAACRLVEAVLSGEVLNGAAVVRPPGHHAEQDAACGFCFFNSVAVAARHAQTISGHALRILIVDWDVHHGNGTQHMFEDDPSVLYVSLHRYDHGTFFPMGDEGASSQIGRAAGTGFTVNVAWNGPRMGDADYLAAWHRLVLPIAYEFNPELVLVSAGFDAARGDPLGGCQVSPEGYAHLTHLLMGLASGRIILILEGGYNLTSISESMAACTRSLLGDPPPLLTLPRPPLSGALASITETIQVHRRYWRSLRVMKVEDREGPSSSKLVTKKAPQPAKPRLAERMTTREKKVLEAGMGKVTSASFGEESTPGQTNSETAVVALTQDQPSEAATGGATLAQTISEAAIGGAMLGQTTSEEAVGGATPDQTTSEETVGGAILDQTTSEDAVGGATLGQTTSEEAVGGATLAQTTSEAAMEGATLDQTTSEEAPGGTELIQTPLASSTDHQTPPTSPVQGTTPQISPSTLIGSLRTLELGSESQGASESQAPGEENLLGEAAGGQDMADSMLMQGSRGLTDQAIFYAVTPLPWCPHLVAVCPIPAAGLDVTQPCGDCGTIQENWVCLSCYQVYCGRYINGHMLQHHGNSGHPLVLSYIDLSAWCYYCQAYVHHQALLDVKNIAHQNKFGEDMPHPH
Description: Inhibition of Nanoluc-fused HDAC6 CD2 (unknown origin) expressed in HEK293 cells incubated for 2 hrs by NANOBRET assay

As for `NC(=O)c1ccc2c(c1)CCCN2Cc1ccc(C(=O)NO)cc1`, the Activity result in data set [1] was “Non-Toxic”. The IC50 in data set [2] is 1370 nM.

Usually IC50 stands for the concentration that inhibits the measured activity by half.
